# Experimental data: BindingDB's records for doi:10.1111/j.1747-0285.2007.00590.x (2007)
# Tests used:
# Hyaluronidase-1 [1] = molecular target: T1, Hyaluronidase-1 (Homo sapiens, UniProt Q12794); experiment: Morgan-Elson Assay; details: pH 3.5; 37 °C
# T1 sequence (Q12794 whole entry): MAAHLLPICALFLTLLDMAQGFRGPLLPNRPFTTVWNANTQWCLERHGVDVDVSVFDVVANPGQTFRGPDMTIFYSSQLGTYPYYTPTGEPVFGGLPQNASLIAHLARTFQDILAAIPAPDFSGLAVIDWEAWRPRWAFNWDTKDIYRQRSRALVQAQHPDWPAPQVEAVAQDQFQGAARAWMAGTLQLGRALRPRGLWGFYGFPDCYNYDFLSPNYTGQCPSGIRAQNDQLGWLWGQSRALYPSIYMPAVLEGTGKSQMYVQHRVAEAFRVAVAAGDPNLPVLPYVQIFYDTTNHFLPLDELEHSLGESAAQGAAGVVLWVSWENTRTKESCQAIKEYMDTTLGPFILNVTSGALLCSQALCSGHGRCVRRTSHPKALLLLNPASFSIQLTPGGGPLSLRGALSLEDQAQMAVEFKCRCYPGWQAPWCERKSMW
# Excerpt: Morgan-elson assay were used to test inhibitors at pH of 3.5.
# Hyaluronidase-1 [2] = molecular target: T1, Hyaluronidase-1; experiment: Stains-all Assay; details: pH 7; 37 °C
# Excerpt: Stains-all assay were used to test inhibitors at pH of 7.
SMILES,IC50 (Hyaluronidase-1 [1]) [µM],IC50 (Hyaluronidase-1 [2]) [µM]
"O=C(NCc1ccccc1)c1cc2ccccc2n1Cc1ccccc1 [N-Substituted indole-2- and 3-carboxamide derivative, 1]",78.2,40.3
"O=C(NCc1ccc(Cl)cc1)c1cc2ccccc2n1Cc1ccccc1 [N-Substituted indole-2- and 3-carboxamide derivative, 2]",64.3,33.2
"O=C(NCc1ccc(Cl)cc1)c1cc2ccccc2n1Cc1ccc(F)cc1 [N-Substituted indole-2- and 3-carboxamide derivative, 7]",–,33
"O=C(NCc1ccc(F)cc1)c1cn(Cc2ccc(F)cc2)c2ccccc12 [N-Substituted indole-2- and 3-carboxamide derivative, 18]",56.7,25.7
"O=C(NCc1ccc(F)cc1)c1cc2ccccc2n1Cc1ccc(F)cc1 [N-Substituted indole-2- and 3-carboxamide derivative, 8]",–,29.9
"O=C(NCc1ccc(F)cc1)c1cc2ccccc2n1Cc1ccccc1 [N-Substituted indole-2- and 3-carboxamide derivative, 3]",–,27.2
"O=C(NCc1ccccc1)c1cc2ccccc2n1Cc1ccc(F)cc1 [N-Substituted indole-2- and 3-carboxamide derivative, 6]",–,41.1
"O=C(NCc1ccccc1)c1cn(Cc2ccc(F)cc2)c2ccccc12 [N-Substituted indole-2- and 3-carboxamide derivative, 16]",61.6,33
"O=C(NCc1ccc(Cl)cc1)c1cn(Cc2ccc(F)cc2)c2ccccc12 [N-Substituted indole-2- and 3-carboxamide derivative, 17]",72.9,33.7
